Literature values as cited in patent US9629360B2, “Water-based pesticidal suspension” (priority 2010, dated 2017).
Converted amounts (≈) assume the structure as drawn.

Settings: 20° C.

COP(=O)(OC)SCn1c(=O)oc2cc(Cl)cnc21 [azamethiphos]
aqueous solubility: 1100 µg/mL (≈ 3.39 mM)

Cc1nc(N(C)C)nc(OC(=O)N(C)C)c1C [pirimicarb]
aqueous solubility: 3100 µg/mL (≈ 13 mM)
